Assay results taken from US11021521B2, “Pore-modified gram-negative bacteria and uses thereof” (priority 2015, dated 2021).
≈ marks a conversion by molar mass, not a printed value. Read-outs that look alike come from different tables or passages of the source.

Key:
Test in all cases: microbe, parasite or virus in culture
Format in all cases: cell-based
[1] = test system: B. thailandensis BtΔ2-RHA-BtPore (efflux-deficient, hyperporinated)
[2] = test system: A. baumannii Ab-ARA-EcPore (hyperporinated); conditions: Ab-ARA-EcPore, at least three independent measurements
[3] = test system: B. thailandensis BtΔ2-RHA (efflux-deficient)
[4] = test system: B. thailandensis Bt-RHA-BtPore (hyperporinated)
[5] = test system: A. baumannii Ab-ARA (wild type, empty cassette); conditions: at least three independent measurements
[6] = test system: A. baumannii AbΔ3-ARA-EcPore (efflux-deficient, hyperporinated); conditions: AbΔ3-ARA-EcPore, at least three independent measurements
[7] = test system: B. cepacia Bc-RHA (wild type, empty cassette)
[8] = test system: A. baumannii AbΔ3-ARA (efflux-deficient); conditions: AbΔ3-ARA, at least three independent measurements
[9] = test system: B. cepacia Bc-RHA-BtPore (hyperporinated); conditions: Bc-RHA-BtPore
[10] = test system: B. thailandensis Bt-RHA (wild type, empty cassette)
[11] = test system: P. aeruginosa PAO1-LAC-EcPore (hyperporinated); conditions: Pseudomonas aeruginosa; PAO1-LAC-EcPore; at least three independent measurements; read-out: MIC
[12] = test system: P. aeruginosa PaΔ3-LAC (efflux-deficient); conditions: Pseudomonas aeruginosa, at least three independent measurements, read-out: MIC
[13] = test system: P. aeruginosa PaΔ3-LAC-EcPore (efflux-deficient, hyperporinated); conditions: Pseudomonas aeruginosa; PaΔ3-LAC-EcPore; at least three independent measurements; read-out: MIC
[14] = Acinetobacter baumannii, read-out: MIC
[15] = Burkholderia cepacia, read-out: MIC

Molecule | MIC ([1]; Burkholderia thailandensis) | MIC [2, 14] | MIC ([3]; Burkholderia thailandensis) | MIC ([4]; Burkholderia thailandensis) | MIC [5, 14] | MIC [6, 14] | MIC [7, 15] | MIC [8, 14] | MIC [9, 15] | MIC ([10]; Burkholderia thailandensis) | MIC [11] | MIC [12] | MIC [13] | also measured
CO[C@H]1/C=C/O[C@@]2(C)Oc3c(C)c(O)c4c(O)c(c(/C=N/N5CCN(C)CC5)c(O)c4c3C2=O)NC(=O)/C(C)=C\C=C\[C@H](C)[C@H](O)[C@@H](C)[C@@H](O)[C@@H](C)[C@H](OC(C)=O)[C@@H]1C [Rifampin] | 0.03 µg/mL (≈ 0.0365 µM) | 0.5 µg/mL (≈ 0.608 µM) | 4 µg/mL (≈ 4.86 µM) | 8 µg/mL (≈ 9.72 µM) | 2 µg/mL (≈ 2.43 µM) | 0.25 µg/mL (≈ 0.304 µM) | 8 µg/mL (≈ 9.72 µM) | 1 µg/mL (≈ 1.22 µM) | 0.06 µg/mL (≈ 0.0729 µM) | 16 µg/mL (≈ 19.4 µM) | – | – | – | –
C[C@H]1c2cccc(O)c2C(=O)C2=C(O)[C@]3(O)C(=O)C(C(N)=O)=C(O)[C@@H](N(C)C)[C@@H]3[C@@H](O)[C@@H]21 [Doxycycline] | 0.01 µg/mL (≈ 0.0225 µM) | 0.02 µg/mL (≈ 0.045 µM) | 0.02 µg/mL (≈ 0.045 µM) | 1.5 µg/mL (≈ 3.38 µM) | 0.04 µg/mL (≈ 0.09 µM) | 0.0016 µg/mL (≈ 0.0036 µM) | 6 µg/mL (≈ 13.5 µM) | 0.0016 µg/mL (≈ 0.0036 µM) | 3 µg/mL (≈ 6.75 µM) | 3 µg/mL (≈ 6.75 µM) | – | – | – | –
CCn1cc(C(=O)O)c(=O)c2ccc(C)nc21 [Nalidixic acid] | 1.5 µg/mL (≈ 6.46 µM) | 1.5 µg/mL (≈ 6.46 µM) | 12 µg/mL (≈ 51.7 µM) | 24 µg/mL (≈ 103 µM) | 3 µg/mL (≈ 12.9 µM) | 0.75 µg/mL (≈ 3.23 µM) | 24 µg/mL (≈ 103 µM) | 1.5 µg/mL (≈ 6.46 µM) | 3 µg/mL (≈ 12.9 µM) | 48 µg/mL (≈ 207 µM) | 32 µg/mL (≈ 138 µM) | 8 µg/mL (≈ 34.4 µM) | 2 µg/mL (≈ 8.61 µM) | –
Gentamicin | – | – | – | – | – | – | – | – | – | – | – | – | – | MIC [1]: 2 µg/mL; MIC [2]: 4 µg/mL; MIC [3]: 4 µg/mL; MIC [4]: >64 µg/mL; MIC [5]: 4 µg/mL; MIC [6]: 8 µg/mL; MIC [7]: 128 µg/mL; MIC [8]: 8 µg/mL; MIC [9]: 16 µg/mL; MIC [10]: >64 µg/mL
O=C(N[C@H](CO)[C@H](O)c1ccc([N+](=O)[O-])cc1)C(Cl)Cl [Chloramphenicol] | 1 µg/mL (≈ 3.09 µM) | 8 µg/mL (≈ 24.8 µM) | 4 µg/mL (≈ 12.4 µM) | 8 µg/mL (≈ 24.8 µM) | 32 µg/mL (≈ 99 µM) | 4 µg/mL (≈ 12.4 µM) | 16 µg/mL (≈ 49.5 µM) | 8 µg/mL (≈ 24.8 µM) | 4 µg/mL (≈ 12.4 µM) | 8 µg/mL (≈ 24.8 µM) | 2 µg/mL (≈ 6.19 µM) | 1 µg/mL (≈ 3.09 µM) | 0.125 µg/mL (≈ 0.387 µM) | –
CC1(C)S[C@@H]2[C@H](NC(=O)[C@H](N)c3ccccc3)C(=O)N2[C@H]1C(=O)O [Ampicillin] | – | – | – | – | 2050 µg/mL (≈ 5860 µM) | – | – | – | 512 µg/mL (≈ 1470 µM) | – | 16 µg/mL (≈ 45.8 µM) | – | – | –
O=C(O)c1cn(C2CC2)c2cc(N3CCNCC3)c(F)cc2c1=O [Ciprofloxacin] | – | – | – | – | – | – | 1 µg/mL (≈ 3.02 µM) | – | – | – | – | – | – | –
Cc1onc(-c2ccccc2Cl)c1C(=O)N[C@@H]1C(=O)N2[C@@H]1SC(C)(C)[C@@H]2C(=O)O [Cloxacillin] | 0.5 µg/mL (≈ 1.15 µM) | 128 µg/mL (≈ 294 µM) | 32 µg/mL (≈ 73.4 µM) | – | 1020 µg/mL (≈ 2350 µM) | 16 µg/mL (≈ 36.7 µM) | 256 µg/mL (≈ 587 µM) | 128 µg/mL (≈ 294 µM) | 4 µg/mL (≈ 9.18 µM) | 256 µg/mL (≈ 587 µM) | 512 µg/mL (≈ 1170 µM) | 128 µg/mL (≈ 294 µM) | 8 µg/mL (≈ 18.4 µM) | MIC [4]: 128 to 256 µg/mL
CN(C)[C@@H]1C(O)=C(C(N)=O)C(=O)[C@@]2(O)C(O)=C3C(=O)c4c(O)cccc4[C@@](C)(O)[C@H]3C[C@@H]12 [Tetracycline] | 0.06 µg/mL (≈ 0.135 µM) | 0.031 µg/mL (≈ 0.0698 µM) | 0.125 µg/mL (≈ 0.281 µM) | 2 µg/mL (≈ 4.5 µM) | 0.125 µg/mL (≈ 0.281 µM) | 0.004 µg/mL (≈ 0.009 µM) | > 8 µg/mL | 0.008 µg/mL (≈ 0.018 µM) | 8 µg/mL (≈ 18 µM) | 2 µg/mL (≈ 4.5 µM) | 0.5 µg/mL (≈ 1.13 µM) | 2 µg/mL (≈ 4.5 µM) | 0.125 µg/mL (≈ 0.281 µM) | –
C[C@H]1COc2c(N3CCN(C)CC3)c(F)cc3c(=O)c(C(=O)O)cn1c23 [Levofloxacin] | – | 0.125 µg/mL (≈ 0.346 µM) | – | 1 µg/mL (≈ 2.77 µM) | 0.125 µg/mL (≈ 0.346 µM) | – | 2 µg/mL (≈ 5.53 µM) | – | 0.06 µg/mL (≈ 0.166 µM) | 2 µg/mL (≈ 5.53 µM) | 0.063 µg/mL (≈ 0.174 µM) | – | – | –
NC[C@H]1O[C@H](O[C@H]2[C@H](O)[C@@H](O[C@H]3O[C@H](CO)[C@@H](O)[C@H](N)[C@H]3O)[C@H](N)C[C@@H]2N)[C@H](O)[C@@H](O)[C@@H]1O [Kanamycin] | 2 µg/mL (≈ 4.13 µM) | – | 4 µg/mL (≈ 8.26 µM) | 64 µg/mL (≈ 132 µM) | – | – | 64 µg/mL (≈ 132 µM) | – | 4 to 8 µg/mL (≈ 8.26 to 16.5 µM) | > 64 µg/mL | – | – | – | –
CC1(C)S[C@@H]2[C@H](NC(=O)C(C(=O)O)c3ccccc3)C(=O)N2[C@H]1C(=O)O (stereo partly shown) [Carbenicillin] | 8 µg/mL (≈ 21.1 µM) | 32 µg/mL (≈ 84.6 µM) | 256 µg/mL (≈ 677 µM) | 256 µg/mL (≈ 677 µM) | 2050 µg/mL (≈ 5410 µM) | 64 µg/mL (≈ 169 µM) | > 1020 µg/mL | 2050 µg/mL (≈ 5410 µM) | 128 µg/mL (≈ 338 µM) | – | 2 µg/mL (≈ 5.29 µM) | 1 µg/mL (≈ 2.64 µM) | 0.125 µg/mL (≈ 0.33 µM) | MIC [10]: 256 to 512 µg/mL
CC[C@H]1OC(=O)[C@H](C)[C@@H](O[C@H]2C[C@@](C)(OC)[C@@H](O)[C@H](C)O2)[C@H](C)[C@@H](O[C@@H]2O[C@H](C)C[C@H](N(C)C)[C@H]2O)[C@](C)(O)C[C@@H](C)C(=O)[C@H](C)[C@@H](O)[C@]1(C)O [Erythromycin] | 0.5 µg/mL (≈ 0.681 µM) | – | 1 µg/mL (≈ 1.36 µM) | – | 5 µg/mL (≈ 6.81 µM) | 0.08 µg/mL (≈ 0.109 µM) | – | – | 8 to 16 µg/mL (≈ 10.9 to 21.8 µM) | 512 µg/mL (≈ 698 µM) | 2 µg/mL (≈ 2.73 µM) | 16 µg/mL (≈ 21.8 µM) | – | –
CC[C@H]1OC(=O)[C@H](C)[C@@H](O[C@H]2C[C@@](C)(OC)[C@@H](O)[C@H](C)O2)[C@H](C)[C@@H](O[C@@H]2O[C@H](C)C[C@H](N(C)C)[C@H]2O)[C@](C)(O)C[C@@H](C)CN(C)[C@H](C)[C@@H](O)[C@]1(C)O [Azithromycin] | 0.032 µg/mL (≈ 0.0427 µM) | 0.04 µg/mL (≈ 0.0534 µM) | 1 µg/mL (≈ 1.34 µM) | 64 µg/mL (≈ 85.4 µM) | 0.31 µg/mL (≈ 0.414 µM) | 0.08 µg/mL (≈ 0.107 µM) | 64 µg/mL (≈ 85.4 µM) | 0.31 µg/mL (≈ 0.414 µM) | 1 to 2 µg/mL (≈ 1.34 to 2.67 µM) | 128 µg/mL (≈ 171 µM) | 4 µg/mL (≈ 5.34 µM) | 4 µg/mL (≈ 5.34 µM) | 0.063 µg/mL (≈ 0.0841 µM) | –
